Results reported in patent publication US7868003B2, “Substituted 4-phenyltetrahydroisoquinolines, pharmaceutical compositions comprising them and therapeutic methods for their use” (Sanofi-Aventis, priority 2005, dated 2011).
Where a name gives a salt, the structure may show the parent alone.

Molecular target: T1, sodium-proton exchanger subtype 3 (NHE3) (Homo sapiens, UniProt P48764)
T1 construct: expressed in transfected cells
T1 sequence (P48764 26-834): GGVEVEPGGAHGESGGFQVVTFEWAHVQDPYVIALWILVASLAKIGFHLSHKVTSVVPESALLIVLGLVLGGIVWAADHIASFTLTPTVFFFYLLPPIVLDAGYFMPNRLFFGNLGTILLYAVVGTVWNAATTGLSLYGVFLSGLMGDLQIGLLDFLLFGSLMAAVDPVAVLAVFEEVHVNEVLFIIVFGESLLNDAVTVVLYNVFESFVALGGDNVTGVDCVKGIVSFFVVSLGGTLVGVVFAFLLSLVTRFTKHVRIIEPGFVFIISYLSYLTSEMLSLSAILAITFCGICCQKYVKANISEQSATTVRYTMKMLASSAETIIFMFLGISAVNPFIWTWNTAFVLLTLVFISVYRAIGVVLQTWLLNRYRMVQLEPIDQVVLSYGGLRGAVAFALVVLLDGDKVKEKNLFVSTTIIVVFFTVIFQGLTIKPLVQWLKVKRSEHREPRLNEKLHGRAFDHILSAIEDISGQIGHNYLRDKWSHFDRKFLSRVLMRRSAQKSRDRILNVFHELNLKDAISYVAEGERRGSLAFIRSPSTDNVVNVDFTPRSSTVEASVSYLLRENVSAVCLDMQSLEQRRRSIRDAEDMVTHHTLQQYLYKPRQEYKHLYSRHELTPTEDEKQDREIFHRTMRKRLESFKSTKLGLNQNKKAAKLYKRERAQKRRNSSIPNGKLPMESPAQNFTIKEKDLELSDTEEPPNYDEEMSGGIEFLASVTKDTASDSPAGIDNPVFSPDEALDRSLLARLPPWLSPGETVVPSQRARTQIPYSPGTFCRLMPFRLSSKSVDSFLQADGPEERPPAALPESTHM
Assay: recovery of intracellular pH (pHi) of LAP1 cells stably expressing NHE3 after acidification (BCECF, FLIPR)
Format: cell-based
Settings: pH recovery in percent of maximum recovery, XLFit, read-out: IC50 (inhibitory action on the NHE3)
Procedure: In this test, the recovery in the intracellular pH (pHi) of LAP1 cells, which stably express the sodium-proton exchanger subtype 3 (NHE3), after an acidification was determined. This recovery sets in even under bicarbonate-free conditions in the case of functioning NHE3. To this end, the pHi was determined with the pH-sensitive fluorescent dye BCECF (Molecular Probes, Eugene, Oreg., USA; the precursor BCECF-AM is used). The cells were first incubated with BCECF (5 μM BCECF-AM) in NH4Cl buffer (NH4Cl buffer: 115 mM cholineCl, 20 mM NH4Cl, 5 mM KCl, 1 mM CaCl2, 1 mM MgCl2, 20 mM Hepes, 5 mM glucose; a pH of 7.4 is established with 1 M KOH). The intracellular acidification was induced by washing the cells incubated in NH4Cl buffer with NH4Cl-free buffer (133.8 mM choline chloride, 4.7 mM KCl, 1.25 mM CaCl2, 1.25 mM MgCl2, 0.97 mM K2HPO4, 0.23 mM KH2PO4, 5 mM Hepes, 5 mM glucose; a pH of 7.4 is established with 1 M KOH). After the washing operation, 90 μl of the NH4Cl-free buffer were left on the cells. The pH recovery was started by the addition of 90 μl of Na^+-containing buffer (133.8 mM NaCl, 4.7 mM KCl, 1.25 mM CaCl2, 1.25 mM MgCl2, 0.97 mM Na2HPO4, 0.23 mM NaH2PO4, 10 mM Hepes, 5 mM glucose; a pH of 7.4 is established with 1 M NaOH) in the analytical instrument (FLIPR, “Fluorometric Imaging Plate Reader”, Molecular Devices, Sunnyvale, Calif., USA). The BCECF fluorescence was determined at an excitation wavelength of 498 nm and the FLIPR emission filter 1 (band gap from 510 to 570 nm). The subsequent changes in fluorescence were registered for two minutes as a measure of the pH recovery. For the calculation of the NHE3-inhibitory potential of the tested substances, the cells were tested first in buffers in which full pH recovery, or none at all, took place. For full pH recovery (100%), the cells were incubated in Na^+-containing buffer (see above), and Na^+-free buffer for the determination of the 0% value (see above). The substances to be tested were made up in Na^+-containing buffer. The recovery in the intracellular pH at each tested concentration of a substance was expressed in percent of the maximum recovery. From the percentages of the pH recovery, the IC50 value of the particular substance for the NHE3 was calculated by means of the program XLFit (idbs, Surrey, UK).

| Structure (SMILES) | IC50 |
| --- | --- |
| CN1Cc2c(Cl)cc(Cl)cc2[C@H](c2ccccc2N2C(=O)CCC2=O)C1 [Example 7, 1-[2-((R)-6,8-Dichloro-2-methyl-1,2,3,4-tetrahydroisoquinolin-4-yl)phenyl]-pyrrolidine-2,5-dione hydrochloride] | 39 nM |
| CN1Cc2c(Cl)cc(Cl)cc2C(c2ccc(N3CCNS3(=O)=O)cc2)C1 (stereo not drawn) [Example 8, 6,8-Dichloro-4-[4-(1,1-dioxo-1-λ^6-[1,2,5]thiadiazolidin-2-yl)phenyl]-2-methyl-1,2,3,4-tetrahydroisoquinoline] | 2590 nM |
| CN1Cc2c(Cl)cc(Cl)cc2[C@H](c2ccc(N3C(=O)CCCC3=O)cc2)C1 [Example 16] | 222 nM |
| CN1Cc2c(Cl)cc(Cl)cc2[C@@H](c2ccccc2N2C(=O)CCC2=O)C1 [Example 34] | 29200 nM |
| CN1Cc2c(Cl)cc(Cl)cc2[C@H](c2cccc(N3CCCCC3=O)c2)C1 [Example 38, 1-[3-((S)-6,8-Dichloro-2-methyl-1,2,3,4-tetrahydroisoquinolin-4-yl)phenyl]-piperidin-2-one] | 461 nM |
| CN1Cc2c(Cl)cc(Cl)cc2[C@H](c2ccccc2-n2cc[nH]c2=O)C1 [Example 40, 1-[2-((R)-6,8-Dichloro-2-methyl-1,2,3,4-tetrahydroisoquinolin-4-yl)phenyl]-1,3-dihydroimidazol-2-one hydrochloride] | 131 nM |
| CN1Cc2c(Cl)cc(Cl)cc2[C@H](c2ccccc2N2C(=O)CSC2=O)C1 [Example 42, 3-[2-((R)-6,8-Dichloro-2-methyl-1,2,3,4-tetrahydroisoquinolin-4-yl)phenyl]-thiazolidine-2,4-dione] | 69 nM |
| CN1Cc2c(Cl)cc(Cl)cc2[C@H](c2ccccc2N2C(=O)COCC2=O)C1 [Example 44, 4-[2-((R)-6,8-Dichloro-2-methyl-1,2,3,4-tetrahydroisoquinolin-4-yl)phenyl]-morpholine-3,5-dione trifluoroacetic acid salt] | 220 nM |
| CN1Cc2c(Cl)cc(Cl)cc2[C@H](c2ccccc2N2CCCS2(=O)=O)C1 [Example 51, (R)-6,8-Dichloro-4-[2-(1,1-dioxo-1-λ^6-isothiazolidin-2-yl)phenyl]-2-methyl-1,2,3,4-tetrahydroisoquinoline hydrochloride] | 141 nM |
| CN1CC(=O)N(c2ccccc2[C@@H]2CN(C3CC3)Cc3c(Cl)cc(Cl)cc32)C1=O [Example 55, 3-[2-((R)-6,8-Dichloro-2-cyclopropyl-1,2,3,4-tetrahydroisoquinolin-4-yl)-phenyl]-1-methylimidazolidine-2,4-dione hydrochloride] | 120 nM |
| CN1Cc2c(Br)cc(Cl)cc2C(c2ccccc2N2CCCC2=O)C1 (stereo not drawn) [Example 64, 1-[2-(8-Bromo-6-chloro-2-methyl-1,2,3,4-tetrahydroisoquinolin-4-yl)-phenyl]pyrrolidin-2-one] | 250 nM |

The remaining compounds from weak to strong by IC50, led by results:

| IC50 | Structure (SMILES) |
| --- | --- |
| 12300 nM | O=C1CCC(=O)N1c1ccccc1[C@@H]1CNCc2c(Cl)cc(Cl)cc21 [Example 52, 1-[2-((R)-6,8-Dichloro-1,2,3,4-tetrahydroisoquinolin-4-yl)phenyl]-pyrrolidine-2,5-dione trifluoroacetic acid salt] |
| 7400 nM | CC(C)CC1NC(=O)N(c2ccccc2[C@@H]2CN(C)Cc3c(Cl)cc(Cl)cc32)C1=O (stereo partly drawn) [Example 58] |
| 1400 nM | CSCCC1NC(=O)N(c2ccccc2[C@@H]2CN(C)Cc3c(Cl)cc(Cl)cc32)C1=O (mixture of isomers) [Example 57, (R and S)-3-[2-((R)-6,8-Dichloro-2-methyl-1,2,3,4-tetrahydroisoquinolin-4-yl)phenyl]-5-(2-methylsulfanylethyl)imidazolidine-2,4-dione trifluoroacetic acid salt] |
| 1200 nM | CC1CC(C)C(=O)N(c2ccccc2[C@@H]2CN(C)Cc3c(Cl)cc(Cl)cc32)C1=O (stereo partly drawn) [Example 29] |
| 220 nM | CN1Cc2c(Cl)cc(Cl)cc2[C@H](c2ccccc2N2CCOC2=O)C1 [Example 46, 3-[2-((R)-6,8-Dichloro-2-methyl-1,2,3,4-tetrahydroisoquinolin-4-yl)phenyl]-oxazolidin-2-one] |
| 129 nM | CN1Cc2c(Cl)cc(Cl)cc2[C@H](c2cccc(N3C(=O)CNC3=O)c2)C1 [Example 4, 3-[3-((S)-6,8-Dichloro-2-methyl-1,2,3,4-tetrahydroisoquinolin-4-yl)phenyl]-imidazolidine-2,4-dione hydrochloride] |
| 119 nM | CN1Cc2c(Cl)cc(Cl)cc2[C@H](c2ccc(N3C(=O)CCC3=O)cc2)C1 [Example 14] |
| 82 nM | CN1Cc2c(Cl)cc(Cl)cc2[C@H](c2ccccc2N2CCCC2=O)C1 [Example 35, 1-[2-((R)-6,8-Dichloro-2-methyl-1,2,3,4-tetrahydroisoquinolin-4-yl)phenyl]-pyrrolidin-2-one trifluoroacetate] |
| 49 nM | CN1Cc2c(Cl)cc(Cl)cc2[C@H](c2ccccc2N2C(=O)COC2=O)C1 [Example 43, 3-[2-((R)-6,8-Dichloro-2-methyl-1,2,3,4-tetrahydroisoquinolin-4-yl)phenyl]-oxazolidine-2,4-dione] |
| 47 nM | CN1Cc2c(Cl)cc(Cl)cc2[C@H](c2cccc(N3C(=O)C=CC3=O)c2)C1 [Example 10] |
